Some test systems named below: SK-MEL-5 melanoma; HCC-2998 colon; NCI-H460 lung; A498 renal; 786-0 renal; K-562 leukemia; LOX IMVI melanoma; UACC-62 melanoma; IGROV1 ovarian; TK-10 renal.
Assay in all cases: growth of human tumour cells (NCI), 48 h

Structures are written as SMILES.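 48-hour exposure; five concentrations; linearly interpolated endpoints. GI50 is the concentration that inhibits growth by half. TGI: total growth inhibition.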 A value given as a limit tells only on which side of the number the result lay.

On to `Cc1cn(-c2cc(NC(=O)c3cccc(C#Cc4cccc5[nH]nc(N)c45)c3)cc(C(F)(F)F)c2)cn1`, for which the GI50 in the assay on SK-MEL-5 melanoma is 4.66 µM; in the assay with HCC-2998 colon, 3.17 µM; in the assay on NCI-H460 lung, 4.13 µM; in the assay on A498 renal, 4.09 µM; in the assay with 786-0 renal it was 4.72 µM; in the assay with LOX IMVI melanoma, 2.87 µM. Also, the GI50 in the assay with UACC-62 melanoma was 2.54 µM; in the assay with IGROV1 ovarian it was 5.29 µM; in the assay with TK-10 renal, 17.8 µM. The TGI is 21.7 µM in the assay with SK-MEL-5 melanoma; over 100 µM in the assay on HCC-2998 colon; 16.7 µM in the assay on NCI-H460 lung; 82.4 µM with A498 renal; 20.6 µM in the assay with 786-0 renal; over 100 µM in the assay on K-562 leukemia. Moreover, the TGI was over 100 µM with LOX IMVI melanoma, 12.7 µM in the assay with UACC-62 melanoma, 83.2 µM in the assay with IGROV1 ovarian and 60.4 µM with TK-10 renal.
For `N#C/C(=C/c1cccc(Oc2ccccc2)c1)c1ccccc1`, the TGI in the assay on SK-MEL-5 melanoma, with HCC-2998 colon, in the assay on NCI-H460 lung, in the assay with A498 renal, with 786-0 renal and in the assay with K-562 leukemia was over 100 µM in each case. In addition, the TGI in the assay with LOX IMVI melanoma, in the assay with UACC-62 melanoma, in the assay on IGROV1 ovarian and with TK-10 renal was over 100 µM in each case.
Take `COc1cc(NS(=O)(=O)c2ccc(C)cc2)c2nccnc2c1`: the TGI in the assay with SK-MEL-5 melanoma was 63.7 µM; in the assay on HCC-2998 colon, over 100 µM; in the assay on NCI-H460 lung, over 100 µM; in the assay with A498 renal it was over 100 µM; in the assay with 786-0 renal, over 100 µM; in the assay with K-562 leukemia, over 100 µM. Besides, the TGI was over 100 µM in the assay with LOX IMVI melanoma, 34.6 µM in the assay on UACC-62 melanoma, over 100 µM with IGROV1 ovarian and over 100 µM with TK-10 renal.
`CCN1C(=O)c2ccc3c4c(ccc(c24)C1=O)C(=O)N(CCCNCc1ccccc1OC)C3=O`: the GI50 is 0.164 µM in the assay with SK-MEL-5 melanoma; 0.632 µM in the assay on HCC-2998 colon; 0.437 µM in the assay on NCI-H460 lung; 0.383 µM in the assay with A498 renal; 1.33 µM in the assay on 786-0 renal; 0.936 µM with K-562 leukemia. Moreover, the GI50 in the assay with LOX IMVI melanoma was 0.314 µM; in the assay with UACC-62 melanoma, 0.468 µM; in the assay with IGROV1 ovarian, 1.28 µM; in the assay on TK-10 renal, 2.52 µM. The TGI in the assay on SK-MEL-5 melanoma was determined as 0.319 µM; in the assay on HCC-2998 colon it was 1.89 µM; with NCI-H460 lung, 2.09 µM; in the assay with A498 renal, 1.99 µM; in the assay with 786-0 renal it was 5.88 µM; in the assay on K-562 leukemia, 4.27 µM. Also, the TGI came to 1.31 µM with LOX IMVI melanoma, 1.63 µM in the assay on UACC-62 melanoma, 4.37 µM in the assay on IGROV1 ovarian and 7.6 µM in the assay on TK-10 renal.
In the case of `COc1ccc2c(c1)NC1=C(C(=O)OC1)C2c1cc(OC)c(OC)c(OC)c1` (stereo unspecified), the GI50 in the assay with SK-MEL-5 melanoma, in the assay on HCC-2998 colon, in the assay on NCI-H460 lung, in the assay on A498 renal, in the assay on 786-0 renal and with K-562 leukemia was under 0.01 µM throughout. The GI50 in the assay on LOX IMVI melanoma, in the assay with UACC-62 melanoma, with IGROV1 ovarian and in the assay on TK-10 renal was under 0.01 µM each time. Moreover, the TGI was under 0.0116 µM with SK-MEL-5 melanoma; over 100 µM in the assay on NCI-H460 lung; under 0.01 µM in the assay with A498 renal; over 100 µM in the assay with 786-0 renal; over 100 µM in the assay with K-562 leukemia; over 100 µM with LOX IMVI melanoma. For the same molecule, the TGI in the assay with UACC-62 melanoma, with IGROV1 ovarian and in the assay on TK-10 renal was over 100 µM each time.
Consider `N[C@H](C(=O)O)[C@@H]1CC(Cl)=NO1`, for which the GI50 with SK-MEL-5 melanoma was 8.51 µM; with NCI-H460 lung, 3.22 µM; in the assay with A498 renal, 45.5 µM; with K-562 leukemia, 7.16 µM; with LOX IMVI melanoma, 3.28 µM; in the assay on UACC-62 melanoma it was 35.1 µM. Besides, the GI50 in the assay on IGROV1 ovarian is 4.41 µM; in the assay on TK-10 renal, 34.5 µM. The TGI with SK-MEL-5 melanoma is 493 µM; with HCC-2998 colon it was 329 µM; in the assay with NCI-H460 lung, over 1000 µM; with A498 renal, over 887 µM; in the assay with 786-0 renal, over 1000 µM; in the assay with K-562 leukemia it was over 944 µM. Besides, the TGI in the assay on LOX IMVI melanoma was over 1000 µM; with UACC-62 melanoma it was 401 µM; with IGROV1 ovarian, 465 µM; in the assay on TK-10 renal, over 609 µM.
For `NC1=NN(c2ccccc2)C(=O)C1C(=O)CCC(=O)Nc1cccc(Cl)c1` (stereo unspecified), the TGI in the assay with SK-MEL-5 melanoma, with HCC-2998 colon, in the assay on NCI-H460 lung, in the assay with A498 renal, in the assay on 786-0 renal and in the assay on K-562 leukemia was over 100 µM throughout. Also, the TGI in the assay with LOX IMVI melanoma, with UACC-62 melanoma, in the assay on IGROV1 ovarian and with TK-10 renal was over 100 µM in each case.
On to `CC(C)CNc1nc(-c2ccccc2Cl)nc2ccccc12`, for which the GI50 in the assay on SK-MEL-5 melanoma was 16.2 µM; with HCC-2998 colon, 19.8 µM; with NCI-H460 lung, 18.3 µM; in the assay on A498 renal, 18.5 µM; in the assay with 786-0 renal, 16.8 µM; in the assay on K-562 leukemia it was 16.8 µM. The GI50 in the assay on LOX IMVI melanoma was 14.5 µM; with UACC-62 melanoma, 14.3 µM; with IGROV1 ovarian, 19.7 µM; in the assay on TK-10 renal, 15.8 µM. The TGI turned out to be 29.8 µM in the assay on SK-MEL-5 melanoma; 35.9 µM in the assay with HCC-2998 colon; 36.1 µM in the assay on NCI-H460 lung; 32.6 µM in the assay with A498 renal; 30.4 µM with 786-0 renal; 43.5 µM in the assay with K-562 leukemia. Also, the TGI is 27.6 µM with LOX IMVI melanoma, 27.4 µM with UACC-62 melanoma, over 100 µM in the assay with IGROV1 ovarian and 29.6 µM in the assay on TK-10 renal.
As to `COCCOC(=O)C1=C(O)c2ccccc2S(=O)(=O)N1C`, the TGI with SK-MEL-5 melanoma, in the assay on HCC-2998 colon, in the assay with NCI-H460 lung, in the assay with A498 renal, with 786-0 renal and in the assay on K-562 leukemia was over 100 µM in each case. In addition, the TGI with LOX IMVI melanoma, with UACC-62 melanoma, in the assay on IGROV1 ovarian and with TK-10 renal was over 100 µM each time.

For the origin of these results see PubChem BioAssay (NCI).
